From ChEMBL document CHEMBL1201862, “PubChem BioAssay data set” (2004)
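Grown in 96-well plates, cells were treated for 48 hours with each compound at five concentrations. Insufficient inhibition: endpoint recorded as highest concentration tested. Abbreviation: GI50, concentration required for 50% inhibition of growth.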 Calls of active or inactive are those of the source. Cut-off read from the data, not from the text of the source: active = GI50 up to about 1.1 µM and inactive = higher.

How the values were obtained:
Experiment in all cases: DTP human tumour cell line panel, 48 h
T47D = tested on: T47D
SF-268 = tested on: SF-268
SK-MEL-2 = tested on: SK-MEL-2
NCI-H226 = tested on: NCI-H226
SK-OV-3 = tested on: SK-OV-3
NCI-H23 = tested on: NCI-H23
OVCAR-3 = tested on: OVCAR-3
HCT-116 = tested on: HCT-116
EKVX = tested on: EKVX
MOLT-4 = tested on: MOLT-4
SK-MEL-5 = tested on: SK-MEL-5
SF-539 = tested on: SF-539
MDA-N = tested on: MDA-N
PC-3 = tested on: PC-3
HOP-62 = tested on: HOP-62
U-251 = tested on: U-251
SW-620 = tested on: SW-620
SNB-75 = tested on: SNB-75
NCI/ADR-RES = tested on: NCI/ADR-RES
SN12C = tested on: SN12C
A498 = tested on: A498
RPMI-8226 = tested on: RPMI-8226
OVCAR-8 = tested on: OVCAR-8
COLO 205 = tested on: COLO 205
UACC-62 = tested on: UACC-62
IGROV-1 = tested on: IGROV-1
OVCAR-5 = tested on: OVCAR-5
OVCAR-4 = tested on: OVCAR-4
A549 = tested on: A549
HCT-15 = tested on: HCT-15
M14 = tested on: M14
DU-145 = tested on: DU-145
UACC-257 = tested on: UACC-257
LOX IMVI = tested on: LOX IMVI
MCF7 = tested on: MCF7
RXF 393 = tested on: RXF 393
CCRF-CEM = tested on: CCRF-CEM
SNB-19 = tested on: SNB-19
MDA-MB-435 = tested on: MDA-MB-435
UO-31 = tested on: UO-31
SF-295 = tested on: SF-295
HCC 2998 = tested on: HCC 2998
HOP-92 = tested on: HOP-92
SK-MEL-28 = tested on: SK-MEL-28
ACHN = tested on: ACHN
MDA-MB-231 = tested on: MDA-MB-231
Hs-578T = tested on: Hs-578T
BT-549 = tested on: BT-549
KM12 = tested on: KM12
CAKI-1 = tested on: CAKI-1
786-0 = tested on: 786-0
TK-10 = tested on: TK-10
HL-60 = tested on: HL-60
NCI-H460 = tested on: NCI-H460
Malme-3M = tested on: Malme-3M
HT-29 = tested on: HT-29
NCI-H522 = tested on: NCI-H522
K562 = tested on: K562

N#CCCN(CCN(CCN(C(=O)Nc1ccccc1)c1ccccc1)C(=O)Nc1ccccc1)C(=O)Nc1ccccc1
GI50 (T47D): 48.4 µM (inactive) | GI50 (SF-268): > 100 µM (inactive) | GI50 (SK-MEL-2): > 100 µM (inactive) | GI50 (NCI-H226): > 100 µM (inactive) | GI50 (SK-OV-3): > 100 µM (inactive) | GI50 (NCI-H23): > 100 µM (inactive) | GI50 (OVCAR-3): > 100 µM (inactive) | GI50 (HCT-116): > 100 µM (inactive) | GI50 (EKVX): 54.2 µM (inactive) | GI50 (MOLT-4): 4.43 µM (inactive) | GI50 (SK-MEL-5): > 100 µM (inactive) | GI50 (SF-539): > 100 µM (inactive) | GI50 (MDA-N): > 100 µM (inactive) | GI50 (PC-3): 6.85 µM (inactive) | GI50 (HOP-62): > 100 µM (inactive) | GI50 (U-251): 5.7 µM (inactive) | GI50 (SW-620): > 100 µM (inactive) | GI50 (SNB-75): 67.6 µM (inactive) | GI50 (NCI/ADR-RES): > 100 µM (inactive) | GI50 (SN12C): > 100 µM (inactive) | GI50 (A498): > 100 µM (inactive) | GI50 (RPMI-8226): 6.47 µM (inactive) | GI50 (OVCAR-8): > 100 µM (inactive) | GI50 (COLO 205): > 100 µM (inactive) | GI50 (UACC-62): > 100 µM (inactive) | GI50 (IGROV-1): 43.9 µM (inactive) | GI50 (OVCAR-5): > 100 µM (inactive) | GI50 (OVCAR-4): > 100 µM (inactive) | GI50 (A549): > 100 µM (inactive) | GI50 (HCT-15): > 100 µM | GI50 (M14): > 100 µM (inactive) | GI50 (DU-145): > 100 µM (inactive) | GI50 (UACC-257): > 100 µM (inactive) | GI50 (LOX IMVI): > 100 µM (inactive) | GI50 (MCF7): 24.7 µM (inactive) | GI50 (RXF 393): > 100 µM (inactive) | GI50 (CCRF-CEM): 1.89 µM (inactive) | GI50 (SNB-19): > 100 µM (inactive) | GI50 (MDA-MB-435): 20.7 µM (inactive) | GI50 (UO-31): > 100 µM (inactive) | GI50 (SF-295): > 100 µM (inactive) | GI50 (HCC 2998): 28.2 µM (inactive) | GI50 (HOP-92): 15.2 µM (inactive) | GI50 (SK-MEL-28): > 100 µM (inactive) | GI50 (ACHN): 40.1 µM (inactive) | GI50 (MDA-MB-231): > 100 µM (inactive) | GI50 (Hs-578T): 26 µM (inactive) | GI50 (BT-549): > 100 µM (inactive) | GI50 (KM12): 2.57 µM (inactive) | GI50 (CAKI-1): > 100 µM (inactive) | GI50 (786-0): > 100 µM (inactive) | GI50 (TK-10): > 100 µM (inactive)

O=[N+]([O-])c1ccc2c(c1)Cc1cc(/N=C/c3ccc4c(c3)OCO4)ccc1-2
GI50 (T47D): > 100 µM (inactive) | GI50 (SF-268): > 100 µM (inactive) | GI50 (SK-MEL-2): > 100 µM (inactive) | GI50 (NCI-H226): > 100 µM (inactive) | GI50 (SK-OV-3): > 100 µM (inactive) | GI50 (NCI-H23): > 100 µM (inactive) | GI50 (OVCAR-3): > 100 µM (inactive) | GI50 (HCT-116): > 100 µM (inactive) | GI50 (EKVX): 57.1 µM (inactive) | GI50 (MOLT-4): > 100 µM (inactive) | GI50 (SK-MEL-5): > 100 µM (inactive) | GI50 (SF-539): > 100 µM (inactive) | GI50 (MDA-N): > 100 µM (inactive) | GI50 (PC-3): > 100 µM (inactive) | GI50 (HOP-62): > 100 µM (inactive) | GI50 (U-251): > 100 µM (inactive) | GI50 (SW-620): > 100 µM (inactive) | GI50 (SNB-75): 89.7 µM (inactive) | GI50 (HL-60): > 100 µM (inactive) | GI50 (NCI/ADR-RES): > 100 µM (inactive) | GI50 (SN12C): > 100 µM (inactive) | GI50 (A498): > 100 µM (inactive) | GI50 (RPMI-8226): > 100 µM (inactive) | GI50 (OVCAR-8): > 100 µM (inactive) | GI50 (COLO 205): > 100 µM (inactive) | GI50 (UACC-62): > 100 µM (inactive) | GI50 (IGROV-1): > 100 µM (inactive) | GI50 (OVCAR-5): > 100 µM (inactive) | GI50 (OVCAR-4): > 100 µM (inactive) | GI50 (A549): > 100 µM (inactive) | GI50 (NCI-H460): > 100 µM (inactive) | GI50 (HCT-15): > 100 µM | GI50 (M14): > 100 µM (inactive) | GI50 (DU-145): > 100 µM (inactive) | GI50 (UACC-257): > 100 µM (inactive) | GI50 (LOX IMVI): > 100 µM (inactive) | GI50 (MCF7): > 100 µM (inactive) | GI50 (RXF 393): > 100 µM (inactive) | GI50 (CCRF-CEM): 61.9 µM (inactive) | GI50 (SNB-19): > 100 µM (inactive) | GI50 (Malme-3M): > 100 µM (inactive) | GI50 (MDA-MB-435): > 100 µM (inactive) | GI50 (UO-31): > 100 µM (inactive) | GI50 (SF-295): > 100 µM (inactive) | GI50 (HOP-92): > 100 µM (inactive) | GI50 (SK-MEL-28): > 100 µM (inactive) | GI50 (ACHN): > 100 µM (inactive) | GI50 (MDA-MB-231): > 100 µM (inactive) | GI50 (HT-29): > 100 µM (inactive) | GI50 (NCI-H522): > 100 µM (inactive) | GI50 (Hs-578T): 80 µM (inactive) | GI50 (BT-549): > 100 µM (inactive) | GI50 (KM12): > 100 µM (inactive) | GI50 (CAKI-1): > 100 µM (inactive) | GI50 (K562): > 100 µM (inactive) | GI50 (786-0): > 100 µM (inactive) | GI50 (TK-10): > 100 µM (inactive)
